Read-outs that look alike come from different tables or passages of the source. No end group written: not given here.
Assays:
A. baumannii ATCC19606 = assay: microbe, parasite or virus in culture; conditions: for MIC A. baumannii ATCC19606: supplement CSV
Summary of the method: (§1)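 Read-out was visible growth after MTT addition, the MIC being the lowest inhibitory peptide concentration. Bacteria grown to log phase in LB were exposed in MH medium to peptide from 64 μg/mL in twofold dilutions for 15-18h at 37°C.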

E. coli W3110 = assay: microbe, parasite or virus in culture; conditions: for MIC E. coli W3110: supplement CSV
Summary of the method: as §1

K. pneumoniae NCTC 418 = assay: microbe, parasite or virus in culture; conditions: for MIC K. pneumoniae NCTC418: supplement CSV
Summary of the method: as §1

P. aeruginosa PAO1 = assay: microbe, parasite or virus in culture; conditions: for MIC P. aeruginosa PAO1: supplement CSV
Summary of the method: as §1

S. aureus COL (MRSA) = assay: microbe, parasite or virus in culture; conditions: for MIC S. aureus COL (MRSA): supplement CSV
Summary of the method: as §1

E. cloacae = assay: microbe, parasite or virus in culture; conditions: for MIC E. cloacae: supplement CSV
Summary of the method: (§2)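 Minimal inhibitory concentrations come from broth microdilution in MH medium, with a top peptide concentration of 64 μg/mL halved serially.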

K. pneumoniae OXA-48 = assay: microbe, parasite or virus in culture; conditions: for MIC K. pneumoniae OXA-48: supplement CSV
Summary of the method: as §2

[1] = test system: P. aeruginosa PA14 2P4 (pmrB); assay: microbe, parasite or virus in culture; conditions: for MIC P. aeruginosa PA14 2P4: supplement CSV
Summary of the method: as §2

P. aeruginosa PA14 = assay: microbe, parasite or virus in culture; conditions: for MIC P. aeruginosa PA14: supplement CSV
Summary of the method: as §2

P. aeruginosa ZEM-1A = assay: microbe, parasite or virus in culture; conditions: for MIC P. aeruginosa ZEM-1A: supplement CSV
Summary of the method: as §2

P. aeruginosa ZEM9A = assay: microbe, parasite or virus in culture; conditions: for MIC P. aeruginosa ZEM9A: supplement CSV
Summary of the method: as §2

[2] = test system: P. aeruginosa PA14 4.18 (pmrB); conditions: for MIC P. aeruginosa PA14 4.18: supplement CSV
human red blood cells = assay: Hemolysis assay, minimum hemolytic concentration
[3] = polymyxin B resistant strain, 12.5% MHB pH 7.4, 16–20 h at 37 °C
[4] = polymyxin B resistant strain, full MHB pH 7.4, 16–20 h at 37 °C

VDKPPYLPRPRPPRRIYNR [sr-Onc] (VDKPPYLPRPRPPRRIYNR-NH2; also: all 19 residues stereorandomized (1:1 L/D mixture))
MIC A. baumannii, 12.5% MHB (A. baumannii ATCC19606; A. baumannii ATCC19606, 12.5% Müller–Hinton medium, 16–20 h at 37 °C): 8 µg/mL
MIC A. baumannii, Full MHB (A. baumannii ATCC19606; A. baumannii ATCC19606, full Müller–Hinton medium, 16–20 h at 37 °C): 32 µg/mL
MIC A. baumannii ATCC19606 (A. baumannii ATCC19606; 12.5% MH pH 7.4): 8 µg/mL
MIC A. baumannii ATCC19606 (A. baumannii ATCC19606; full MH pH 7.4): 32 µg/mL
MIC E. coli, 12.5% MHB (E. coli W3110; E. coli W3110, 12.5% Müller–Hinton medium, 16–20 h at 37 °C, broth microdilution): 8 µg/mL
MIC E. coli, Full MHB (E. coli W3110; E. coli W3110, full Müller–Hinton medium, 16–20 h at 37 °C, broth microdilution): 32 µg/mL
MIC E. coli W3110 (E. coli W3110; 12.5% MH pH 7.4): 8 µg/mL
MIC E. coli W3110 (E. coli W3110; full MH pH 7.4): 32 µg/mL
MIC K. pneumoniae, 12.5% MHB (K. pneumoniae NCTC 418; K. pneumoniae NCTC 418, 12.5% Müller–Hinton medium, 16–20 h at 37 °C): > 16 µg/mL
MIC K. pneumoniae, Full MHB (K. pneumoniae NCTC 418; K. pneumoniae NCTC 418, full Müller–Hinton medium, 16–20 h at 37 °C): > 64 µg/mL
MIC K. pneumoniae NCTC418 (K. pneumoniae NCTC 418; 12.5% MH pH 7.4): >16 µg/mL
MIC K. pneumoniae NCTC418 (K. pneumoniae NCTC 418; full MH pH 7.4): >64 µg/mL
MIC P. aeruginosa, 12.5% MHB (P. aeruginosa PAO1; P. aeruginosa PAO1, 12.5% Müller–Hinton medium, 16–20 h at 37 °C): 8 µg/mL
MIC P. aeruginosa, Full MHB (P. aeruginosa PAO1; P. aeruginosa PAO1, full Müller–Hinton medium, 16–20 h at 37 °C): > 64 µg/mL
MIC P. aeruginosa PAO1 (P. aeruginosa PAO1; 12.5% MH pH 7.4): 8 µg/mL
MIC P. aeruginosa PAO1 (P. aeruginosa PAO1; full MH pH 7.4): >64 µg/mL
MIC S. aureus, 12.5% MHB (S. aureus COL (MRSA); S. aureus COL (MRSA), 12.5% Müller–Hinton medium, 16–20 h at 37 °C): >64 / >64 μg/mL
MIC S. aureus, Full MHB (S. aureus COL (MRSA); S. aureus COL (MRSA), full Müller–Hinton medium, 16–20 h at 37 °C): >64 / >64 μg/mL
MIC S. aureus COL (MRSA) (S. aureus COL (MRSA); 12.5% MH pH 7.4): >64 µg/mL
MIC S. aureus COL (MRSA) (S. aureus COL (MRSA); full MH pH 7.4): >64 µg/mL
MIC E. cloacae, 12.5% MHB (E. cloacae; 12.5% MHB pH 7.4, 16–20 h at 37 °C): 8 µg/mL
MIC E. cloacae, full MHB (E. cloacae; full MHB pH 7.4, 16–20 h at 37 °C): > 64 µg/mL
MIC E. cloacae (E. cloacae; 12.5% MH pH 7.4): 8 µg/mL
MIC E. cloacae (E. cloacae; full MH pH 7.4): >64 µg/mL
MIC K. pneumoniae OXA-48, 12.5% MHB (K. pneumoniae OXA-48; carbapenem-resistant, 12.5% MHB pH 7.4, 16–20 h at 37 °C): >64/>64 μg/mL
MIC K. pneumoniae OXA-48, full MHB (K. pneumoniae OXA-48; carbapenem-resistant, full MHB pH 7.4, 16–20 h at 37 °C): >64/>64 μg/mL
MIC K. pneumoniae OXA-48 (K. pneumoniae OXA-48; 12.5% MH pH 7.4): >64 µg/mL
MIC K. pneumoniae OXA-48 (K. pneumoniae OXA-48; full MH pH 7.4): >64 µg/mL
MIC P. aeruginosa PA14 2P4 (pmrB), 12.5% MHB [1, 3]: 16 µg/mL
MIC P. aeruginosa PA14 2P4 (pmrB), full MHB [1, 4]: > 64 µg/mL
MIC P. aeruginosa PA14 2P4 ([1]; 12.5% MH pH 7.4): 16 µg/mL
MIC P. aeruginosa PA14 2P4 ([1]; full MH pH 7.4): >64 µg/mL
MIC P. aeruginosa PA14, 12.5% MHB (P. aeruginosa PA14; 12.5% MHB pH 7.4, 16–20 h at 37 °C, two different duplicate MIC determinations): 32 µg/mL
MIC P. aeruginosa PA14, full MHB (P. aeruginosa PA14; full MHB pH 7.4, 16–20 h at 37 °C, two different duplicate MIC determinations): > 64 µg/mL
MIC P. aeruginosa PA14 (P. aeruginosa PA14; 12.5% MH pH 7.4): 32 µg/mL
MIC P. aeruginosa PA14 (P. aeruginosa PA14; full MH pH 7.4): >64 µg/mL
MIC P. aeruginosa ZEM-1A, 12.5% MHB (P. aeruginosa ZEM-1A; clinical isolate, 12.5% MHB pH 7.4, 16–20 h at 37 °C, cells marked c: single measurement (in duplicates)): >64/64 ^c μg/mL
MIC P. aeruginosa ZEM-1A, full MHB (P. aeruginosa ZEM-1A; clinical isolate, full MHB pH 7.4, 16–20 h at 37 °C, cells marked c: single measurement (in duplicates)): >64/64 ^c μg/mL
MIC P. aeruginosa ZEM-1A (P. aeruginosa ZEM-1A; 12.5% MH pH 7.4): 64 µg/mL
MIC P. aeruginosa ZEM-1A (P. aeruginosa ZEM-1A; full MH pH 7.4): >64 µg/mL
MIC P. aeruginosa ZEM9A, 12.5% MHB (P. aeruginosa ZEM9A; clinical isolate, 12.5% MHB pH 7.4, 16–20 h at 37 °C): 32 µg/mL
MIC P. aeruginosa ZEM9A, full MHB (P. aeruginosa ZEM9A; clinical isolate, full MHB pH 7.4, 16–20 h at 37 °C): > 64 µg/mL
MIC P. aeruginosa ZEM9A (P. aeruginosa ZEM9A; 12.5% MH pH 7.4): 32 µg/mL
MIC P. aeruginosa ZEM9A (P. aeruginosa ZEM9A; full MH pH 7.4): >64 µg/mL
MIC P. aeruginosa PA14 4.18 (pmrB), 12.5% MHB [2, 3]: 32 µg/mL
MIC P. aeruginosa PA14 4.18 (pmrB), full MHB [2, 4]: > 64 µg/mL
MIC P. aeruginosa PA14 4.18 ([2]; 12.5% MH pH 7.4): 32 µg/mL
MIC P. aeruginosa PA14 4.18 ([2]; full MH pH 7.4): >64 µg/mL
Haemolysis on hRBC, MHC (human red blood cells; 2.5% human red blood cells (final) in 10 mM phosphate, 150 mM NaCl, pH 7.4, 25 °C, 4 h, visual inspection): >1000 µg/mL
MHC human red blood cells (human red blood cells; supplement CSV): >1000 µg/mL
